# Measurements taken from publication PMC8887546, “Design and Synthesis of Brain Penetrant Glycopeptide Analogues of PACAP With Neuroprotective Potential for Traumatic Brain Injury and Parkinsonism” (Frontiers in drug discovery, 2022).
# Key:
# [1] = test system: Sprague Dawley rats, 6-OHDA lesion; test: Unbiased stereology of TH-positive neurons in SNc (study 2); assay type: in vivo, rat; settings: more severe (40%) lesion
# Protocol: Rats were treated with 2LS98Lac or saline (vehicle) as outlined in the Schemes in Figures 9A,B via intraperitoneal (i.p.) injection (15 mg/kg). All animals were made hemi-parkinsonian with unilateral, striatal 6-hydroxydopamine (Sigma Aldrich, St. Louis, MO) injections. After surgery, behavioral assessments were done at 2- and 4-weeks post-surgery. 24 h after the last test animals were either euthanized and whole brains were harvested for future biochemical analysis or perfused and brains collected for immunohistochemistry and stereological assessment of tyrosine hydroxylase-positive (TH+) cells remaining in the SNc. In study 1: n = 16 each group were included, and all underwent the behavioral analysis: n = 16, and for the stereology in the SNc, n = 8 each group was used. In study 2: n = 23 each group were included. […]
# Stereological probes were applied using a Zeiss Imager M2 microscope (Carl Zeiss, Jena, Germany) equipped with StereoInvestigator software (MBF Bioscience, VT, United States) according to previously published methods ([Corenblum et al., 2015]; [Anandhan et al., 2021]). Using the optical fractionator probe, cells were counted under the ×63 oil immersion objective by a blinded observer. TH+ cells were counted in sections 480 μm apart using a grid size of 170 × 100 μm and counting frame size of 75 × 75 μm. […]
# [2] = test system: Sprague Dawley rats, 6-OHDA lesion; test: Striatal dopamine content, HPLC-EC (study 2); assay type: in vivo, rat; settings: more severe (40%) lesion, vs vehicle
# Protocol: Rats were treated with 2LS98Lac or saline (vehicle) as outlined in the Schemes in Figures 9A,B via intraperitoneal (i.p.) injection (15 mg/kg). All animals were made hemi-parkinsonian with unilateral, striatal 6-hydroxydopamine (Sigma Aldrich, St. Louis, MO) injections. After surgery, behavioral assessments were done at 2- and 4-weeks post-surgery. 24 h after the last test animals were either euthanized and whole brains were harvested for future biochemical analysis or perfused and brains collected for immunohistochemistry and stereological assessment of tyrosine hydroxylase-positive (TH+) cells remaining in the SNc. In study 1: n = 16 each group were included, and all underwent the behavioral analysis: n = 16, and for the stereology in the SNc, n = 8 each group was used. In study 2: n = 23 each group were included. […] In the 2LS98Lac group, one video at 4 weeks was lost, reducing n = 22 in this specific analysis, and for the stereology, 2 brains were damaged during processing and could not be included in the stereology of the SNc, therefore […]. For biochemical subanalyses, n = 8 each group. For the microglial morphology subanalysis n = 7 each group.
# FIGURE 9 | Evaluation of neuroprotection of the PACAP glycopeptide 2LS98Lac in rat Parkinson’s disease models. (A) Scheme for study 1, using a mild PD lesion. (B) Scheme for study 2, using a moderate PD lesion. […]
smiles,measurement,setting,value
[2H]C([2H])([2H])C([2H])(C([2H])([2H])[2H])[C@]([2H])(NC(=O)[C@H](C)NC(=O)[C@H](C)NC(=O)[C@H](CC(C)C)NC(=O)[C@H](Cc1ccc(O)cc1)NC(=O)[C@H](CCCCN)NC(=O)[C@H](CCCCN)NC(=O)[C@@]([2H])(NC(=O)[C@H](C)NC(=O)[C@H](CC(C)C)NC(=O)[C@H](CCC(N)=O)NC(=O)[C@H](CCCCN)NC(=O)[C@H](CCCNC(=N)N)NC(=O)[C@H](Cc1ccc(O)cc1)NC(=O)[C@H](CCCNC(=N)N)NC(=O)[C@H](CO)NC(=O)[C@H](Cc1ccc(O)cc1)NC(=O)[C@H](CO)NC(=O)[C@H](CC(=O)O)NC(=O)[C@@H](NC(=O)[C@H](Cc1ccccc1)NC(=O)[C@@H](NC(=O)CNC(=O)[C@H](CC(=O)O)NC(=O)[C@H](CO)NC(=O)[C@@H](N)Cc1c[nH]cn1)[C@@H](C)CC)[C@@H](C)O)C([2H])(C([2H])([2H])[2H])C([2H])([2H])[2H])C(=O)N[C@@H](CC(C)C)C(=O)N[C@@H](CO[C@@H]1O[C@H](CO)[C@@H](O[C@@H]2O[C@H](CO)[C@H](O)[C@H](O)[C@H]2O)[C@H](O)[C@H]1O)C(N)=O [Compound 2LS98Lac],Mean increase of nigral TH cells on the lesioned side vs vehicle,[1]; not significant (p = 0.2208),850 cells
same,Nigral TH-cell count on the lesioned side,"[1]; three injections 15 mg/kg i.p., mean, vehicle 8,391","9,244 cells"
same,Striatal DA content,[2],no significant difference
